Molecules are shown by their SMILES.
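Further: spheroids exposed to agents for seven days before readout.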
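Wherever viability, T/C is given: percent viability relative to DMSO vehicle control taken as 100%.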

The first assay concerns 233499-124-R-J3-PDC spheroids with HUVEC/MSC, viability. The assay is described as follows: Anticancer human tumor 233499-124-R-J3-PDC patient-derived colon adenocarcinoma cell line growth inhibition [PI3K]. The note with it: curve of first compound; second compound 0.0316 µM. The procedure, abridged: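 Complex 3D spheroids (cancer cells + endothelial HUVEC + mesenchymal stem cells); drug pairs of targeted agent x inavolisib/alpelisib/duvelisib/copanlisib; half-log series from ~Cmax, max 10 microM if Cmax unknown; endpoint viability.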
For orientation: IC50 means the concentration at which inhibition is half-maximal. On to `CC(C)NCC(C(=O)N1CCN(c2ncnc3c2C(C)CC3O)CC1)c1ccc(Cl)cc1` (configuration not stated) + CC(Nc1ncnc2nc[nH]c12)c1cc2cccc(Cl)c2c(=O)n1-c1ccccc1, for which the IC50 was over 10 µM.
Turning to `CCN1CCN(Cc2ccc(Nc3ncc(F)c(-c4cc(F)c5nc(C)n(C(C)C)c5c4)n3)nc2)CC1` + CC(Nc1ncnc2nc[nH]c12)c1cc2cccc(Cl)c2c(=O)n1-c1ccccc1, the IC50 was 0.916 µM.
Same read-out and setting: under `Cn1ncc(Cl)c1-c1cc(C(=O)NC(CN)Cc2cccc(F)c2)sc1Cl` (configuration not stated) + CC(Nc1ncnc2nc[nH]c12)c1cc2cccc(Cl)c2c(=O)n1-c1ccccc1 stands 3.2 µM; under `Cn1nccc1Nc1nccc(-c2ccn(C(CO)c3ccc(Cl)c(F)c3)c(=O)c2)n1` (configuration not stated) + CC(Nc1ncnc2nc[nH]c12)c1cc2cccc(Cl)c2c(=O)n1-c1ccccc1, over 10 µM.

Staying with this assay, now noted: curve of first compound; second compound 0.1 µM.
Take `CC(C)NCC(C(=O)N1CCN(c2ncnc3c2C(C)CC3O)CC1)c1ccc(Cl)cc1` (configuration not stated) + CC(Nc1ncnc2nc[nH]c12)c1cc2cccc(Cl)c2c(=O)n1-c1ccccc1: the IC50 was over 10 µM.
Turning to `CCN1CCN(Cc2ccc(Nc3ncc(F)c(-c4cc(F)c5nc(C)n(C(C)C)c5c4)n3)nc2)CC1` + CC(Nc1ncnc2nc[nH]c12)c1cc2cccc(Cl)c2c(=O)n1-c1ccccc1, the IC50 stood at 0.832 µM.
With `Cn1ncc(Cl)c1-c1cc(C(=O)NC(CN)Cc2cccc(F)c2)sc1Cl` (configuration not stated) + CC(Nc1ncnc2nc[nH]c12)c1cc2cccc(Cl)c2c(=O)n1-c1ccccc1, the IC50 came out at 4.73 µM.
Turning to `Cn1nccc1Nc1nccc(-c2ccn(C(CO)c3ccc(Cl)c(F)c3)c(=O)c2)n1` (configuration not stated) + CC(Nc1ncnc2nc[nH]c12)c1cc2cccc(Cl)c2c(=O)n1-c1ccccc1, the IC50 is over 10 µM.

The assay is the same for the next values; noted with them: curve of first compound; second compound 0.316 µM.
On to `CC(C)NCC(C(=O)N1CCN(c2ncnc3c2C(C)CC3O)CC1)c1ccc(Cl)cc1` (configuration not stated) + CC(Nc1ncnc2nc[nH]c12)c1cc2cccc(Cl)c2c(=O)n1-c1ccccc1, for which the IC50 is over 10 µM.
Regarding `CCN1CCN(Cc2ccc(Nc3ncc(F)c(-c4cc(F)c5nc(C)n(C(C)C)c5c4)n3)nc2)CC1` + CC(Nc1ncnc2nc[nH]c12)c1cc2cccc(Cl)c2c(=O)n1-c1ccccc1, the IC50 amounted to 0.788 µM.
Regarding `Cn1ncc(Cl)c1-c1cc(C(=O)NC(CN)Cc2cccc(F)c2)sc1Cl` (configuration not stated) + CC(Nc1ncnc2nc[nH]c12)c1cc2cccc(Cl)c2c(=O)n1-c1ccccc1, the IC50 came to 3.13 µM.
On the same count and under the same terms, next, `Cn1nccc1Nc1nccc(-c2ccn(C(CO)c3ccc(Cl)c(F)c3)c(=O)c2)n1` (configuration not stated) + CC(Nc1ncnc2nc[nH]c12)c1cc2cccc(Cl)c2c(=O)n1-c1ccccc1: over 10 µM.

Staying with this assay, now noted: curve of first compound; second compound 1 µM.
`CC(C)NCC(C(=O)N1CCN(c2ncnc3c2C(C)CC3O)CC1)c1ccc(Cl)cc1` (configuration not stated) + CC(Nc1ncnc2nc[nH]c12)c1cc2cccc(Cl)c2c(=O)n1-c1ccccc1: the IC50 was over 10 µM.
With `CCN1CCN(Cc2ccc(Nc3ncc(F)c(-c4cc(F)c5nc(C)n(C(C)C)c5c4)n3)nc2)CC1` + CC(Nc1ncnc2nc[nH]c12)c1cc2cccc(Cl)c2c(=O)n1-c1ccccc1, the IC50 was found to be 0.963 µM.
Consider `Cn1ncc(Cl)c1-c1cc(C(=O)NC(CN)Cc2cccc(F)c2)sc1Cl` (configuration not stated) + CC(Nc1ncnc2nc[nH]c12)c1cc2cccc(Cl)c2c(=O)n1-c1ccccc1, for which the IC50 is 4.11 µM.
In the case of `Cn1nccc1Nc1nccc(-c2ccn(C(CO)c3ccc(Cl)c(F)c3)c(=O)c2)n1` (configuration not stated) + CC(Nc1ncnc2nc[nH]c12)c1cc2cccc(Cl)c2c(=O)n1-c1ccccc1, the IC50 is over 10 µM.

Still in this assay, the particulars now being: curve of first compound; second compound 3.16 µM.
Turning to `CC(C)NCC(C(=O)N1CCN(c2ncnc3c2C(C)CC3O)CC1)c1ccc(Cl)cc1` (configuration not stated) + CC(Nc1ncnc2nc[nH]c12)c1cc2cccc(Cl)c2c(=O)n1-c1ccccc1, the IC50 was over 10 µM.
On the same count and under the same terms, next, `CCN1CCN(Cc2ccc(Nc3ncc(F)c(-c4cc(F)c5nc(C)n(C(C)C)c5c4)n3)nc2)CC1` + CC(Nc1ncnc2nc[nH]c12)c1cc2cccc(Cl)c2c(=O)n1-c1ccccc1: 0.214 µM; `Cn1ncc(Cl)c1-c1cc(C(=O)NC(CN)Cc2cccc(F)c2)sc1Cl` (configuration not stated) + CC(Nc1ncnc2nc[nH]c12)c1cc2cccc(Cl)c2c(=O)n1-c1ccccc1: 5.24 µM; `Cn1nccc1Nc1nccc(-c2ccn(C(CO)c3ccc(Cl)c(F)c3)c(=O)c2)n1` (configuration not stated) + CC(Nc1ncnc2nc[nH]c12)c1cc2cccc(Cl)c2c(=O)n1-c1ccccc1: over 10 µM.

Staying with this assay, now noted: curve of first compound; second compound 10 µM.
On to `CC(C)NCC(C(=O)N1CCN(c2ncnc3c2C(C)CC3O)CC1)c1ccc(Cl)cc1` (configuration not stated) + CC(Nc1ncnc2nc[nH]c12)c1cc2cccc(Cl)c2c(=O)n1-c1ccccc1, for which the IC50 was over 10 µM.
`CCN1CCN(Cc2ccc(Nc3ncc(F)c(-c4cc(F)c5nc(C)n(C(C)C)c5c4)n3)nc2)CC1` + CC(Nc1ncnc2nc[nH]c12)c1cc2cccc(Cl)c2c(=O)n1-c1ccccc1: the IC50 came out at 0.193 µM.
With `Cn1ncc(Cl)c1-c1cc(C(=O)NC(CN)Cc2cccc(F)c2)sc1Cl` (configuration not stated) + CC(Nc1ncnc2nc[nH]c12)c1cc2cccc(Cl)c2c(=O)n1-c1ccccc1, the IC50 was determined as 5.3 µM.
Consider `Cn1nccc1Nc1nccc(-c2ccn(C(CO)c3ccc(Cl)c(F)c3)c(=O)c2)n1` (configuration not stated) + CC(Nc1ncnc2nc[nH]c12)c1cc2cccc(Cl)c2c(=O)n1-c1ccccc1, for which the IC50 is over 10 µM.

The assay is the same for the next values; noted with them: second compound 0.0316 µM; first compound 0.00316 µM; stronger effect = lower value.
What is called viability, T/C is the result in the treated group divided by that in the control group, in per cent. Consider `CCN1CCN(Cc2ccc(Nc3ncc(F)c(-c4cc(F)c5nc(C)n(C(C)C)c5c4)n3)nc2)CC1` + CC(Nc1ncnc2nc[nH]c12)c1cc2cccc(Cl)c2c(=O)n1-c1ccccc1, for which the viability, T/C is 102%.

The same assay, now with this note: second compound 0.0316 µM; first compound 0.01 µM; stronger effect = lower value.
On to `CCN1CCN(Cc2ccc(Nc3ncc(F)c(-c4cc(F)c5nc(C)n(C(C)C)c5c4)n3)nc2)CC1` + CC(Nc1ncnc2nc[nH]c12)c1cc2cccc(Cl)c2c(=O)n1-c1ccccc1, for which the viability, T/C is 93.5%.

The assay is the same for the next values; noted with them: second compound 0.0316 µM; first compound 0.0316 µM; stronger effect = lower value.
On to `CC(C)NCC(C(=O)N1CCN(c2ncnc3c2C(C)CC3O)CC1)c1ccc(Cl)cc1` (configuration not stated) + CC(Nc1ncnc2nc[nH]c12)c1cc2cccc(Cl)c2c(=O)n1-c1ccccc1, for which the viability, T/C was 86.1%.
`CCN1CCN(Cc2ccc(Nc3ncc(F)c(-c4cc(F)c5nc(C)n(C(C)C)c5c4)n3)nc2)CC1` + CC(Nc1ncnc2nc[nH]c12)c1cc2cccc(Cl)c2c(=O)n1-c1ccccc1: the viability, T/C was 83.2%.
For `Cn1ncc(Cl)c1-c1cc(C(=O)NC(CN)Cc2cccc(F)c2)sc1Cl` (configuration not stated) + CC(Nc1ncnc2nc[nH]c12)c1cc2cccc(Cl)c2c(=O)n1-c1ccccc1, the viability, T/C is 70.5%.
On the same count and under the same terms, next, `Cn1nccc1Nc1nccc(-c2ccn(C(CO)c3ccc(Cl)c(F)c3)c(=O)c2)n1` (configuration not stated) + CC(Nc1ncnc2nc[nH]c12)c1cc2cccc(Cl)c2c(=O)n1-c1ccccc1: 108%.

Still in this assay, the particulars now being: second compound 0.0316 µM; first compound 0.1 µM; stronger effect = lower value.
`CC(C)NCC(C(=O)N1CCN(c2ncnc3c2C(C)CC3O)CC1)c1ccc(Cl)cc1` (configuration not stated) + CC(Nc1ncnc2nc[nH]c12)c1cc2cccc(Cl)c2c(=O)n1-c1ccccc1: the viability, T/C is 100%.
With `CCN1CCN(Cc2ccc(Nc3ncc(F)c(-c4cc(F)c5nc(C)n(C(C)C)c5c4)n3)nc2)CC1` + CC(Nc1ncnc2nc[nH]c12)c1cc2cccc(Cl)c2c(=O)n1-c1ccccc1, the viability, T/C is 70.1%.
As to `Cn1ncc(Cl)c1-c1cc(C(=O)NC(CN)Cc2cccc(F)c2)sc1Cl` (configuration not stated) + CC(Nc1ncnc2nc[nH]c12)c1cc2cccc(Cl)c2c(=O)n1-c1ccccc1, the viability, T/C was 105%.
Turning to `Cn1nccc1Nc1nccc(-c2ccn(C(CO)c3ccc(Cl)c(F)c3)c(=O)c2)n1` (configuration not stated) + CC(Nc1ncnc2nc[nH]c12)c1cc2cccc(Cl)c2c(=O)n1-c1ccccc1, the viability, T/C is 104%.

Staying with this assay, now noted: second compound 0.0316 µM; first compound 0.316 µM; stronger effect = lower value.
In the case of `CC(C)NCC(C(=O)N1CCN(c2ncnc3c2C(C)CC3O)CC1)c1ccc(Cl)cc1` (configuration not stated) + CC(Nc1ncnc2nc[nH]c12)c1cc2cccc(Cl)c2c(=O)n1-c1ccccc1, the viability, T/C was 94.8%.
`CCN1CCN(Cc2ccc(Nc3ncc(F)c(-c4cc(F)c5nc(C)n(C(C)C)c5c4)n3)nc2)CC1` + CC(Nc1ncnc2nc[nH]c12)c1cc2cccc(Cl)c2c(=O)n1-c1ccccc1: the viability, T/C was 61.5%.
For `Cn1ncc(Cl)c1-c1cc(C(=O)NC(CN)Cc2cccc(F)c2)sc1Cl` (configuration not stated) + CC(Nc1ncnc2nc[nH]c12)c1cc2cccc(Cl)c2c(=O)n1-c1ccccc1, the viability, T/C is 60.3%.
Regarding `Cn1nccc1Nc1nccc(-c2ccn(C(CO)c3ccc(Cl)c(F)c3)c(=O)c2)n1` (configuration not stated) + CC(Nc1ncnc2nc[nH]c12)c1cc2cccc(Cl)c2c(=O)n1-c1ccccc1, the viability, T/C was 110%.

Staying with this assay, now noted: second compound 0.0316 µM; first compound 1 µM; stronger effect = lower value.
With `CC(C)NCC(C(=O)N1CCN(c2ncnc3c2C(C)CC3O)CC1)c1ccc(Cl)cc1` (configuration not stated) + CC(Nc1ncnc2nc[nH]c12)c1cc2cccc(Cl)c2c(=O)n1-c1ccccc1, the viability, T/C was 94.8%.
In the case of `CCN1CCN(Cc2ccc(Nc3ncc(F)c(-c4cc(F)c5nc(C)n(C(C)C)c5c4)n3)nc2)CC1` + CC(Nc1ncnc2nc[nH]c12)c1cc2cccc(Cl)c2c(=O)n1-c1ccccc1, the viability, T/C is 48.5%.
Regarding `Cn1ncc(Cl)c1-c1cc(C(=O)NC(CN)Cc2cccc(F)c2)sc1Cl` (configuration not stated) + CC(Nc1ncnc2nc[nH]c12)c1cc2cccc(Cl)c2c(=O)n1-c1ccccc1, the viability, T/C was 91.5%.
Turning to `Cn1nccc1Nc1nccc(-c2ccn(C(CO)c3ccc(Cl)c(F)c3)c(=O)c2)n1` (configuration not stated) + CC(Nc1ncnc2nc[nH]c12)c1cc2cccc(Cl)c2c(=O)n1-c1ccccc1, the viability, T/C was 88%.

For the origin of these results see PubChem BioAssay AID1963984 (Molecular Pharmacology Branch, DTP, NCI, 2024).
